From EP0532328A2, “Novel lignans, intermediates thereof and a process for preparing the intermediates” (TSUMURA & CO., priority 1991, dated 1993)
Read-outs that look alike come from different tables or passages of the source. One block for each molecule: values may come before it.

What was measured:
[1] = solubility in a physiological salt solution; format: physicochemical
Protocol: The thus-obtained compound V is dissolved in methanol, and a) when R4 is a methoxyl group, a dilute water solution of sodium hydroxide is added to the solution to hydrolyze it, the thus-reacted solution is washed with ethyl acetate, and the water phase is concentrated, followed by acidifying with 10 % hydrochloric acid or b) when R4 is a benzyloxyl group, hydrogen gas is added to compound V in the presence of palladium on carbon, the used palladium on carbon is removed, and the methanol is distilled off, to obtain a compound represented by the constitutional formula: [drawing 11] wherein R1 and R2 are as defined above, said compound being shown as compound VI. The thus-obtained compound VI is dissolved in a solvent such as acetone, the thus-obtained solution is reacted with a dilute water solution of sodium hydroxide, the thus-reacted solution is filtered to obtain a deposit, the thus-obtained deposit is washed with said solvent, and the thus-washed deposit is dried to obtain a novel lignan compound that is one of the present inventions and that is represented by the constitutional formula: [drawing 12] wherein R1 and R2 are as defined above and R5 is a residual group of the sodium salt of an amino acid, said compound being referred to as compound VII. […]

[2] = solubility in water / purified water; format: physicochemical
Protocol: However, intravenous administrations are necessary to promptly produce drug effects in acute phase symptoms in hepatic lesion, etc., or to lower effective doses. An administration by intravenous drop infusion is not preferable as it causes patients physical and psychological pain. However, due to the low solubility in water (0.15 mg/ml of water), an aqueous injection faces a difficulty in maintaining an effective amount of the compound dissolved in an adequate amount of liquid for a one-time administration, because the amount of liquid per dose of the injection is limited to 10 to 20 ml. To make the amount of liquid adequate for the administration of an amount of the effective compound, a large amount of a solubilizing agent such as polyethylene glycol must be used. However, since this causes adverse effects, such as a hemolysis reaction, the amount used should be limited to a certain extent. Thus the development of a material having medicinal effects equivalent to said compounds and a proper solublity in water, as a substance for intravenous injection, has been sought.
The thus-obtained compound V is dissolved in methanol, and a) when R4 is a methoxyl group, a dilute water solution of sodium hydroxide is added to the solution to hydrolyze it, the thus-reacted solution is washed with ethyl acetate, and the water phase is concentrated, followed by acidifying with 10 % hydrochloric acid or b) when R4 is a benzyloxyl group, hydrogen gas is added to compound V in the presence of palladium on carbon, the used palladium on carbon is removed, and the methanol is distilled off, to obtain a compound represented by the constitutional formula: [drawing 11] wherein R1 and R2 are as defined above, said compound being shown as compound VI. The thus-obtained compound VI is dissolved in a solvent such as acetone, the thus-obtained solution is reacted with a dilute water solution of sodium hydroxide, the thus-reacted solution is filtered to obtain a deposit, the thus-obtained deposit is washed with said solvent, and the thus-washed deposit is dried to obtain a novel lignan compound that is one of the present inventions and that is represented by the constitutional formula: [drawing 12] wherein R1 and R2 are as defined above and R5 is a residual group of the sodium salt of an amino acid, said compound being referred to as compound VII. In this reaction, when instead of a dilute water solution of sodium hydroxide, a dilute water solution of another pharmaceutically acceptable metal hydroxide is used, then a compound is obtained wherein R5 is, instead of the residual group of the sodium salt of amino acid, a pharmaceutically acceptable salt other than the residual group of the sodium salt of the amino acid. Said salts are, for example, a potassium salt and a calcium salt.

[3] = in words, compared with the corresponding derivative of gomisin A

- solubility in a physiological salt solution [1]: 30 mg/10 ml
Compound: COc1cc2c(c(OC)c1OC)-c1c(cc3c(c1OC)OCO3)C[C@H](C)[C@@](C)(OC(=O)CCC(=O)NCC(=O)O)C2 [gomisin A glycinosodium succinate]

- solubility in purified water [2]: 30 mg/2 ml
- solubility relative to the solubility of gomisin A ([2]; ratio to gomisin A): 100 times
Compound: COc1cc2c(c(OC)c1OC)-c1c(cc3c(c1OC)OCO3)C[C@H](C)[C@@](C)(OC(=O)CCC(=O)O)C2 [gomisin Asodium succinate, gomisin A sodium succinate]

Compound: COc1cc2c(c(OC)c1OC)-c1c(cc(OC)c(OC)c1OC)C[C@](C)(OC(=O)CCC(=O)NCC(=O)O)[C@@H](C)C2 [schizandrin glycinosodium succinate]
- solubility in a physiological salt solution [1, 3]: quite equivalent to the solubility of each corresponding derivative of gomisin A
- solubility in purified water [2, 3]: quite equivalent to the solubility of each corresponding derivative of gomisin A

Compound: COc1cc2c(c(OC)c1OC)-c1c(cc(OC)c(OC)c1OC)C[C@](C)(OC(=O)CCC(=O)O)[C@@H](C)C2 [schizandrin sodium succinate]
- solubility in purified water [2, 3]: quite equivalent to the solubility of each corresponding derivative of gomisin A
